From PubChem BioAssay (NCI)
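GI50 is the concentration that inhibits growth by half. TGI: total growth inhibition.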

Assays:
Test in all cases: inhibition of tumour cell growth, NCI panel, 384-well format; in the data active means GI50 below about 0.43 µM; inactive means the rest
[1] = tested on: UO-31 renal
[2] = tested on: HOP-92 NSCLC
[3] = tested on: HCC-2998 colon
[4] = tested on: SR leukemia
[5] = tested on: 786-0 renal
[6] = tested on: IGROV1 ovarian
[7] = tested on: MOLT-4 leukemia
[8] = tested on: NCI-H23 lung
[9] = tested on: COLO 205 colon
[10] = tested on: EKVX NSCLC
[11] = tested on: NCI-H322M lung
[12] = tested on: SNB-75 CNS
[13] = tested on: MDA-MB-435 melanoma
[14] = tested on: NCI-H226 lung
[15] = tested on: ACHN renal
[16] = tested on: OVCAR-3 ovarian
[17] = tested on: A549 NSCLC
[18] = tested on: MDA-MB-468 breast
[19] = tested on: MALME-3M melanoma
[20] = tested on: CAKI-1 renal
[21] = tested on: OVCAR-5 ovarian
[22] = tested on: HCT-116 colon
[23] = tested on: OVCAR-4 ovarian
[24] = tested on: PC-3 prostate
[25] = tested on: SW-620 colon
[26] = tested on: RPMI-8226 leukemia
[27] = tested on: SK-MEL-5 melanoma
[28] = tested on: SK-OV-3 ovarian
[29] = tested on: A498 renal
[30] = tested on: KM12 colon
[31] = tested on: SF-539 CNS
[32] = tested on: BT-549 breast
[33] = tested on: SF-295 CNS
[34] = tested on: LOX IMVI melanoma
[35] = tested on: HOP-62 NSCLC
[36] = tested on: U251 glioblastoma
[37] = tested on: CCRF-CEM leukemia
[38] = tested on: DU-145 prostate
[39] = tested on: TK-10 renal
[40] = tested on: SK-MEL-28 melanoma
[41] = tested on: MDA-MB-231 breast
[42] = tested on: T-47D breast
[43] = tested on: HT29 colon
[44] = tested on: M14 melanoma
[45] = tested on: NCI-H522 lung
[46] = tested on: MCF7 breast
[47] = tested on: HL-60(TB) leukemia
[48] = tested on: K-562 leukemia
[49] = tested on: UACC-257 melanoma
[50] = tested on: HCT-15 colon
[51] = tested on: OVCAR-8 ovarian
[52] = tested on: SN12C renal
[53] = tested on: HS 578T breast
[54] = tested on: NCI/ADR-RES ovarian
[55] = tested on: RXF 393 renal
[56] = tested on: SNB-19 CNS
[57] = tested on: SF-268 CNS
[58] = tested on: NCI-H460 NSCLC

O=C(Nc1cc(F)c(F)cc1C(=O)O)c1ccc(-n2ccnc2)nn1
49.7 µM: TGI [4]
> 100 µM: TGI [1] | TGI [2] | TGI [3] | TGI [5] | TGI [6] | TGI [7] | TGI [8] | TGI [9] | TGI [10] | TGI [11] | TGI [12] | TGI [13] | TGI [14] | TGI [15] | TGI [16] | TGI [17] | TGI [18] | TGI [19] | TGI [20] | TGI [21] | TGI [22] | TGI [23] | TGI [24] | TGI [25] | TGI [26] | TGI [27] | TGI [28] | TGI [29] | TGI [30] | TGI [31] | TGI [32] | TGI [33] | TGI [34] | TGI [35] | TGI [36] | TGI [37] | TGI [38] | TGI [39] | TGI [40] | TGI [41] | TGI [42] | TGI [43] | TGI [44] | TGI [45] | TGI [46] | TGI [47] | TGI [48] | TGI [49] | TGI [50] | TGI [51] | TGI [52] | TGI [53] | TGI [54] | TGI [55] | TGI [56] | TGI [57] | TGI [58]
inactive: GI50 [1] > 100 µM | GI50 [2] > 100 µM | GI50 [3] > 100 µM | GI50 [4] 23.3 µM | GI50 [5] > 100 µM | GI50 [6] > 100 µM | GI50 [7] > 100 µM | GI50 [8] > 100 µM | GI50 [9] > 100 µM | GI50 [10] > 100 µM | GI50 [11] > 100 µM | GI50 [12] > 100 µM | GI50 [13] > 100 µM | GI50 [14] > 100 µM | GI50 [15] > 100 µM | GI50 [16] > 100 µM | GI50 [17] > 100 µM | GI50 [18] 29.2 µM | GI50 [19] > 100 µM | GI50 [20] > 100 µM | GI50 [21] > 100 µM | GI50 [22] > 100 µM | GI50 [23] > 100 µM | GI50 [24] > 100 µM | GI50 [25] > 100 µM | GI50 [26] > 100 µM | GI50 [27] 57.9 µM | GI50 [28] > 100 µM | GI50 [29] > 100 µM | GI50 [30] > 100 µM | GI50 [31] > 100 µM | GI50 [32] > 100 µM | GI50 [33] > 100 µM | GI50 [34] > 100 µM | GI50 [35] > 100 µM | GI50 [36] > 100 µM | GI50 [37] > 100 µM | GI50 [38] > 100 µM | GI50 [39] > 100 µM | GI50 [40] > 100 µM | GI50 [41] > 100 µM | GI50 [42] > 100 µM | GI50 [43] > 100 µM | GI50 [44] > 100 µM | GI50 [45] 65.1 µM | GI50 [46] > 100 µM | GI50 [47] > 100 µM | GI50 [48] 50.6 µM | GI50 [49] > 100 µM | GI50 [50] > 100 µM | GI50 [51] > 100 µM | GI50 [52] > 100 µM | GI50 [53] > 100 µM | GI50 [54] > 100 µM | GI50 [55] > 100 µM | GI50 [56] > 100 µM | GI50 [57] > 100 µM | GI50 [58] > 100 µM
